From patent US10966426B2, “Herbicidal compositions comprising phenylpyrimidines” (BASF SE, priority 2016, dated 2021)
Read-outs that look alike come from different tables or passages of the source.

How the values were obtained:
Type in all cases: in vivo
[1] = tested on: Alopecurus myosuroides; test: greenhouse post-emergence treatment, ALOMY; settings: Alopecurus myosuroides, 480 h, ALOMY, 20 DAT
Procedure, shortened: (§1)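 Visual damage score 0–100 (0 = normal growth; 100 = no emergence/above-ground parts destroyed), read 2–4 wk post-treatment. Loamy sand, ~3.0% humus; seedlings grown in place or transplanted days before spraying; water as solvent; 10-25° C. or 20-35° C. per species. Combination expectations by Colby: E=X+Y−(X·Y/100).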

[2] = tested on: Bromus sterilis; test: greenhouse post-emergence treatment, BROST; settings: Bromus sterilis; for inhibition at 500000 µg/mL (stock): sc
Procedure, shortened: as §1

[3] = tested on: Papaver rhoeas; test: greenhouse post-emergence treatment, PAPRH; settings: Papaver rhoeas; for pest or weed control at 125 g/ha / pest or weed control at 250 g/ha / pest or weed control at 500 g/ha: read-out: % activity
Procedure, shortened: (§2)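 Visual herbicidal effect (0–100) recorded over a 2 to 4 week test period after foliar treatment at plant heights of 3 to 15 cm. Expected combination effects derived by the Colby formula from single-component effects X and Y.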

[4] = tested on: Ambrosia elatior; test: greenhouse pre-emergence treatment, AMBEL; settings: Ambrosia artemisiifolia, 480 h, AMBEL, 20 DAT
Procedure, shortened: (§3)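 Pre-emergence spray of compounds, alone or as combinations formulated as 10% emulsion concentrate in water, directly after sowing in loamy sand (~3.0% humus); pots hooded until rooting, kept at 10-25° C or 20-35° C per species for 2 to 4 weeks. Damage scored 0-100 (100 = no emergence/complete destruction); Colby expected value E=X+Y−(X·Y/100).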

[5] = tested on: Avena fatua; test: greenhouse pre-emergence treatment, AVEFA; settings: Avena fatua, 480 h, AVEFA, 20 DAT
Procedure, shortened: as §3

[6] = tested on: Matricaria chamomilla; test: greenhouse post-emergence treatment, MATCH; settings: MATCH; for pest or weed control at 125 g/ha / inhibition at 500000 µg/mL (stock): Matricaria chamomilla; for inhibition at 500000 µg/mL (stock): sc
Procedure, shortened: as §2

[7] = tested on: Avena fatua; test: greenhouse post-emergence treatment, AVEFA; settings: Avena fatua
Procedure, shortened: as §1

[8] = tested on: Poa annua; test: greenhouse post-emergence treatment, POAAN; settings: Poa annua
Procedure, shortened: (§4)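 Foliar application to greenhouse-grown plants 3–15 cm tall in humus-containing loamy sand; response assessed on a 0–100 scale after 2–4 weeks, with Colby's E=X+Y−(X·Y/100) as the additive expectation.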

[9] = tested on: Polygonum convolvulus; test: greenhouse post-emergence treatment, POLCO; settings: Fallopia convolvulus; for inhibition at 500000 µg/mL (stock): sc, POLCO
Procedure, shortened: as §2

[10] = tested on: Setaria viridis; test: greenhouse post-emergence treatment, SETVI; settings: Setaria viridis; for inhibition at 500000 µg/mL (stock): sc
Procedure, shortened: as §1

[11] = tested on: Ambrosia elatior; test: greenhouse post-emergence treatment, AMBEL; settings: for % activity: cinmethylin solo (EC 750 g/l), 21 DAT, AMBEL
Procedure, shortened: as §4

[12] = tested on: Brachiaria decumbens; test: greenhouse post-emergence treatment, BRADC; settings: for % activity: cinmethylin solo (EC 750 g/l); for inhibition at 500000 µg/mL (stock): sc
Procedure, shortened: as §4

[13] = 62.5 gai/ha (EC 750 g/l), Table X1, read-out: % activity, solo application
[14] = Urochloa decumbens, 504 h, read-out: % activity
[15] = 480 h, 20 DAT, flufenacet solo 31.25 gai/ha
[16] = 480 h, 20 DAT, flufenacet solo 125 gai/ha
[17] = flufenacet SC 500 g/l solo 62.5 gai/ha, read-out: % activity
[18] = 480 h, 20 DAT, flufenacet solo 62.5 gai/ha
[19] = 480 h, 20 DAT, solo flufenacet (SC 500 g/l) 31.25 gai/ha
[20] = 480 h, 20 DAT, solo flufenacet (SC 500 g/l) 62.5 gai/ha
[21] = 480 h, 20 DAT, solo flufenacet (SC 500 g/l) 125 gai/ha

Cc1ccc(NC(=O)N(C)C)cc1Cl [chlorotoluron] was tested, and the pest or weed control at 125 g/ha ([1]; chlorotoluron solo 125 gai/ha, read-out: % activity) was 30%, the pest or weed control at 250 g/ha ([1]; chlorotoluron solo 250 gai/ha, read-out: % activity) was 40% and the pest or weed control at 500 g/ha ([1]; chlorotoluron solo 500 gai/ha) was 65%. For the same molecule, the pest or weed control at 62.5 g/ha ([2]; 480 h, BROST, chlorotoluron solo 62.5 gai/ha, 20 DAT, read-out: % activity) was 0%, the pest or weed control at 125 g/ha ([2]; 480 h, BROST, chlorotoluron solo 125 gai/ha, 20 DAT, read-out: % activity) was 0% and the pest or weed control at 62.5 g/ha ([3]; 480 h, PAPRH, chlorotoluron solo 62.5 gai/ha, 20 DAT) was 0%. It also gave a pest or weed control at 125 g/ha ([3]; 480 h, PAPRH, chlorotoluron solo 125 gai/ha, 20 DAT) of 0%, a pest or weed control at 250 g/ha ([3]; 480 h, PAPRH, chlorotoluron solo 250 gai/ha, 20 DAT) of 20% and a pest or weed control at 500 g/ha ([3]; 480 h, PAPRH, chlorotoluron solo 500 gai/ha, 20 DAT) of 25%. It also gave a pest or weed control at 125 g/ha ([4]; chlorotoluron solo 125 gai/ha) of 0%, a pest or weed control at 500 g/ha ([4]; chlorotoluron solo 500 gai/ha) of 40% and a pest or weed control at 62.5 g/ha ([5]; chlorotoluron solo 62.5 gai/ha) of 0%. For the same molecule, the pest or weed control at 125 g/ha ([6]; 480 h, chlorotoluron solo 125 gai/ha, 20 DAT) was 50%, the pest or weed control at 125 g/ha ([7]; 480 h, AVEFA, chlorotoluron solo 125 gai/ha, 20 DAT, read-out: % activity) was 0% and the pest or weed control at 250 g/ha ([7]; 480 h, AVEFA, chlorotoluron solo 250 gai/ha, 20 DAT) was 40%. For the same molecule, the pest or weed control at 500 g/ha ([7]; 480 h, AVEFA, chlorotoluron solo 500 gai/ha, 20 DAT) was 70%.
In the case of Cc1ccccc1CO[C@@H]1C[C@@]2(C(C)C)CC[C@]1(C)O2 (racemic) [cinmethylin], the pest or weed control at 62.5 g/ha ([8]; 504 h, read-out: % activity) is reported as 70%, the pest or weed control at 62.5 g/ha ([2]; 504 h, read-out: % activity) is reported as 10% and the pest or weed control at 250 g/ha ([2]; 504 h, read-out: % activity) is reported as 25%. The pest or weed control at 62.5 g/ha ([3]; 504 h, PAPRH, 21 DAT, solo cinmethylin (EC 750 g/l) 62.5 gai/ha) was 0%, the pest or weed control at 125 g/ha ([3]; 504 h) was 20% and the pest or weed control at 250 g/ha ([3]; 504 h) was 20%. It also gave a pest or weed control at 500 g/ha ([3]; 504 h) of 55%, a percent weed control (herbicidal activity, 0-100 scale) at 62.5 g/ha [4, 13] of 0% and a percent weed control (herbicidal activity, 0-100 scale) at 125 g/ha ([4]; 125 gai/ha (EC 750 g/l), Table X1, read-out: % activity, solo application) of 0%. The inhibition at 62.5 g/ha [5, 13] was 10%, the pest or weed control at 62.5 g/ha ([9]; 504 h, read-out: % activity) was 0% and the pest or weed control at 125 g/ha ([9]; 504 h, read-out: % activity) was 0%. For the same molecule, the pest or weed control at 250 g/ha ([9]; 504 h, read-out: % activity) was 0%, the pest or weed control at 500 g/ha ([9]; 504 h, read-out: % activity) was 0% and the pest or weed control at 125 g/ha ([10]; 504 h, SETVI, 21 DAT, solo cinmethylin (EC 750 g/l) 125 gai/ha) was 55%. It also gave a pest or weed control at 62.5 g/ha ([10]; 504 h, read-out: % activity) of 20%, a pest or weed control at 500 g/ha ([10]; 504 h, read-out: % activity) of 85% and a pest or weed control at 125 g/ha ([6]; 504 h, 21 DAT, solo cinmethylin (EC 750 g/l) 125 gai/ha) of 0%. The “% activity” value ([6]; cinmethylin solo (EC 750 g/l), 125 gai/ha, 21 DAT) was 0%, the pest or weed control at 125 g/ha ([7]; 504 h, read-out: % activity) was 10% and the “% activity” value ([11]; 62.5 gai/ha) was 0%. The “% activity” value ([11]; 125 gai/ha) was 0%, the pest or weed control at 125 g/ha ([12]; Urochloa decumbens, 504 h, BRADC, 21 DAT, solo cinmethylin (EC 750 g/l) 125 gai/ha, read-out: % activity) was 0% and the pest or weed control at 500 g/ha ([12]; Urochloa decumbens, 504 h, BRADC, 21 DAT, solo cinmethylin (EC 750 g/l) 500 gai/ha) was 20%. The pest or weed control at 62.5 g/ha [12, 14] was 0%, the pest or weed control at 250 g/ha [12, 14] was 10% and the “% activity” value ([12]; 125 gai/ha, 21 DAT, BRADC) was 0%. For the same molecule, the “% activity” value ([12]; 500 gai/ha, 21 DAT, BRADC) was 20%.
Molecule CC(C)N(C(=O)COc1nnc(C(F)(F)F)s1)c1ccc(F)cc1 [flufenacet] has an inhibition at 31.25 g/ha [8, 15] of 70%, an inhibition at 125 g/ha [2, 16] of 65% and an inhibition at 250 g/ha ([2]; 480 h, 20 DAT, flufenacet solo 250 gai/ha) of 80%. It also gave an inhibition at 500000 µg/mL (stock) ([2]; 480 h, BROST, 20 DAT, solo flufenacet (SC 500 g/l) 125 gai/ha) of 65%, an inhibition at 500000 µg/mL (stock) ([2]; 480 h, BROST, 20 DAT, solo flufenacet (SC 500 g/l) 250 gai/ha) of 80% and an inhibition at 500000 µg/mL (stock) ([3]; 480 h, PAPRH, 20 DAT, solo flufenacet (SC 500 g/l) 250 gai/ha) of 0%. It also gave a percent weed control (herbicidal activity, 0-100 scale) at 31.25 g/ha ([4]; flufenacet SC 500 g/l solo 31.25 gai/ha) of 0%, a percent weed control (herbicidal activity, 0-100 scale) at 62.5 g/ha [4, 17] of 0% and a percent weed control (herbicidal activity, 0-100 scale) at 125 g/ha ([4]; flufenacet SC 500 g/l solo 125 gai/ha, read-out: % activity) of 0%. The inhibition at 62.5 g/ha [5, 17] was 60%, the inhibition at 31.25 g/ha [9, 15] was 0% and the inhibition at 62.5 g/ha [9, 18] was 30%. The inhibition at 125 g/ha [9, 16] was 30%, the inhibition at 500000 µg/mL (stock) [9, 19] was 0% and the inhibition at 500000 µg/mL (stock) [9, 20] was 30%. The inhibition at 500000 µg/mL (stock) [9, 21] was 30%, the inhibition at 500000 µg/mL (stock) ([9]; 480 h, 20 DAT, solo flufenacet (SC 500 g/l) 250 gai/ha) was 50% and the inhibition at 62.5 g/ha [10, 18] was 35%. The inhibition at 125 g/ha [10, 16] was 55%, the inhibition at 500000 µg/mL (stock) ([10]; 480 h, SETVI, 20 DAT, solo flufenacet (SC 500 g/l) 62.5 gai/ha) was 35% and the inhibition at 500000 µg/mL (stock) ([10]; 480 h, SETVI, 20 DAT, solo flufenacet (SC 500 g/l) 125 gai/ha) was 55%. For the same molecule, the inhibition at 500000 µg/mL (stock) [6, 19] was 0%, the inhibition at 500000 µg/mL (stock) [6, 20] was 0% and the inhibition at 500000 µg/mL (stock) [6, 21] was 50%. For the same molecule, the inhibition at 31.25 g/ha ([7]; 480 h, 20 DAT, flufenacet solo 31.25 gai/ha, read-out: % activity) was 30%, the inhibition at 62.5 g/ha [7, 18] was 65% and the inhibition at 125 g/ha ([7]; 480 h, 20 DAT, flufenacet solo 125 gai/ha, read-out: % activity) was 65%. It also gave an inhibition at 62.5 g/ha ([11]; Ambrosia artemisiifolia, 480 h, 20 DAT, flufenacet solo 62.5 gai/ha) of 0%, an inhibition at 125 g/ha ([11]; Ambrosia artemisiifolia, 480 h, 20 DAT, flufenacet solo 125 gai/ha) of 30% and an inhibition at 250 g/ha ([11]; Ambrosia artemisiifolia, 480 h, 20 DAT, flufenacet solo 250 gai/ha) of 70%. For the same molecule, the inhibition at 31.25 g/ha ([12]; Urochloa decumbens, 480 h, 20 DAT, flufenacet solo 31.25 gai/ha) was 0%, the inhibition at 62.5 g/ha ([12]; Urochloa decumbens, 480 h, 20 DAT, flufenacet solo 62.5 gai/ha) was 0% and the inhibition at 125 g/ha ([12]; Urochloa decumbens, 480 h, 20 DAT, flufenacet solo 125 gai/ha) was 0%. For the same molecule, the inhibition at 250 g/ha ([12]; Urochloa decumbens, 480 h, 20 DAT, flufenacet solo 250 gai/ha) was 35%, the inhibition at 500000 µg/mL (stock) ([12]; Urochloa decumbens, 480 h, BRADC, 20 DAT, solo flufenacet (SC 500 g/l) 31.25 gai/ha) was 0% and the inhibition at 500000 µg/mL (stock) ([12]; Urochloa decumbens, 480 h, BRADC, 20 DAT, solo flufenacet (SC 500 g/l) 62.5 gai/ha) was 0%. The inhibition at 500000 µg/mL (stock) ([12]; Urochloa decumbens, 480 h, BRADC, 20 DAT, solo flufenacet (SC 500 g/l) 125 gai/ha) was 0% and the inhibition at 500000 µg/mL (stock) ([12]; Urochloa decumbens, 480 h, BRADC, 20 DAT, solo flufenacet (SC 500 g/l) 250 gai/ha) was 35%.
